Data set [1] concerns Panel NCI-60 (60 carcinoma cell lines). Briefly: Cytotoxicity against human Panel NCI-60 (60 carcinoma cell lines) assessed as cell growth inhibition. The class given is functional, cell-based.
Data set [2] concerns the target Tubulin. Briefly: Binding affinity to tubulin (unknown origin). The class given is protein-complex assay, Homo sapiens.
For data set [3], the system named is HeLa. Kind of data set: Cytotoxicity against human HeLa cells assessed as cell growth inhibition. It is filed as functional.
Data set [4] relates to HeLa S3. Briefly: Cytotoxicity against human HeLa S3 cells assessed as reduction in cell viability incubated for 4 days by propidium iodide staining based fluorescence analysis. To be noted: HeLa S3, 96 h. The class given is functional.
The subject of data set [5] is SK-OV-3. Kind of data set: Cytotoxicity against human SK-OV-3 cells assessed as reduction in cell viability incubated for 96 hrs by PrestoBlue cell viability assay. The class given is functional, cell-based. To be noted: SK-OV-3, 96 h.
For data set [6], the system named is HL-60. Kind of data set: Cytotoxicity against P-gp negative human HL-60 cells assessed as reduction inc cell viability. The class given is functional, cell-based.
Data set [7] has as its system KARPAS-299. Briefly: Cytotoxicity against human KARPAS-299 cells assessed as reduction in cell viability incubated for 5 days by Presto blue dye based assay. The class given is functional. To be noted: KARPAS-299, 120 h.
Data set [8] is described as follows: Toxicity in mouse assessed as maximum tolerated dose. To be noted: in vivo.
Data set [9] deals with NCI-H446. Kind of data set: Anti-tumor activity against human NCI-H446 cells xenografted in SCID mouse assessed as log increase in apoptosis at 450 microg/kg, iv measured after 96 hrs. To be noted: dose 450 µg/kg. It is filed as functional.
Data set [10] relates to NCI-H460. Kind of data set: Anticancer activity against human NCI-H460 cells assessed as growth inhibition. The class given is functional.
Data set [11] has as its system SF-295. Kind of data set: Anticancer activity against human SF-295 cells assessed as growth inhibition. The class given is functional.
The subject of data set [12] is leukaemia cell line. Briefly: Cytotoxicity against human leukaemia cell line assessed as cell growth inhibition. The class given is functional.
Data set [13] relates to NCI-H446. Briefly: Anticancer activity against human NCI-H446 cells assessed as cell growth inhibition. It is filed as functional, cell-based.
Data set [14] addresses Tubulin. Kind of data set: Inhibition of tubulin (unknown origin) polymerization assessed as reduction in microtubule formation measured for 20 mins by spectrophotometric analysis. The class given is protein-complex assay, Homo sapiens.
Data set [15] concerns L1210. Briefly: Cytotoxicity against mouse L1210 cells assessed as cell growth inhibition measured after 24 hrs. The class given is functional, cell-based. To be noted: L1210, 24 h.
In data set [16] the test system is NCI-H446. Kind of data set: Anti-tumor activity against human NCI-H446 cells xenografted in SCID mouse assessed as increase in median survival time at 450 microg/kg, iv (Rvb= 42 day). It is filed as functional. To be noted: dose 450 µg/kg.
Data set [17] has as its system NCI-H510A. Briefly: Anticancer activity against human NCI-H510A cells assessed as cell growth inhibition. It is filed as functional, cell-based.
Data set [18] concerns NCI-H82. Briefly: Anticancer activity against human NCI-H82 cells assessed as cell growth inhibition. The class given is functional, cell-based.
Data set [19] has as its system A498. Briefly: Anticancer activity against human A498 cells assessed as growth inhibition. The class given is functional.
Data set [20] has as its system NCI-H69. Kind of data set: Anticancer activity against human NCI-H69 cells assessed as cell growth inhibition. It is filed as functional, cell-based.
Data set [21] deals with OVCAR-3. Kind of data set: Anticancer activity against human OVCAR-3 cells assessed as growth inhibition. It is filed as functional.
In data set [22] the test system is SK-MEL-5. Kind of data set: Anticancer activity against human SK-MEL-5 cells assessed as growth inhibition. The class given is functional.
In data set [23] the target is Tubulin. Briefly: Inhibition of tubulin (unknown origin) polymerization assessed as reduction in microtubule formation preincubated for 15 mins followed by GTP addition and measured for 20 mins by spectrophotometric analysis. It is filed as protein-complex assay, Homo sapiens.
A short description of data set [24]: Toxicity in dog assessed as maximum tolerated dose. To be noted: in vivo. Further details: species or system Canis lupus familiaris.
Data set [25] concerns KM-20L2. Briefly: Anticancer activity against human KM-20L2 cells assessed as growth inhibition. It is filed as functional.
Data set [26] relates to HT-29. Briefly: Anticancer activity against human HT-29 assessed as reduction in cell viability incubated for 96 hrs by microculture tetrazolium assay. The class given is functional, cell-based. To be noted: HT-29, 96 h.
The subject of data set [27] is H3396. Briefly: Cytotoxicity against human H3396 cells assessed as cell growth inhibition. It is filed as functional, cell-based.
Data set [28] relates to HCT-116. Briefly: Cytotoxicity against human HCT-116 cells assessed as reduction inc cell viability. The class given is functional, cell-based.
In data set [29] the test system is HT-29. Briefly: Cytotoxicity against human HT-29 cells assessed as cell growth inhibition. It is filed as functional, cell-based.
Data set [30] relates to ASPC1. Briefly: Cytotoxicity against human ASPC1 cells assessed as cell growth inhibition incubated for 72 hrs by CellTiter-Glo assay. It is filed as functional.
Data set [31] deals with SK-BR-3. Briefly: Cytotoxicity against human SK-BR-3 cells assessed as cell growth inhibition incubated for 72 hrs by CellTiter-Glo assay. It is filed as functional.

Molecules are shown by their SMILES. Starred links: 1 amine or outer side, 2 acyl side, 3 side chain; linkers in the order of their positions; H or OH if unused. Non-standard residues stand in square brackets, D forms with d. Residues, ends and D or L forms follow the SMILES beside them. *: point of attachment. X2 = CO[C@H]([C@@H](C)C(=O)[*:2])[C@@H]1C[C@@H]2C[C@@H]2N1[*:1]; Dolaproine = CO[C@@H]([C@@H]1CCCN1)[C@@H](C)C(=O)O; Abu(3S-N3) = C[C@H](N=[N+]=[N-])[C@H](N)C(=O)O; X6 = C/C(=N\OCC(=O)*)c1ccc(C[C@H](N)C(=O)O)cc1; Dil = CC[C@H](C)[C@H](NC)[C@@H](CC(=O)O)OC; X5 = CCCCCCCCCCN(C)[C@H](C(=O)*)C(C)C; Phe(2-F) = N[C@@H](Cc1ccccc1F)C(=O)O; NMeV = CN[C@H](C(=O)O)C(C)C

Consider `CC[C@H](C)[C@@H]([C@@H](CC(=O)N1CCC[C@H]1[C@H](OC)[C@@H](C)C(=O)NCCc1ccccn1)OC)N(C)C(=O)[C@@H](NC(=O)[C@H](C(C)C)N(C)C)C(C)C`, for which the GI50 in [1] is 0.85 nM. In addition, the 50% inhibitory concentration (IC50) in data set [2] turned out to be 1.2 nM.
With `CC[C@H](C)[C@@H]([C@@H](CC(=O)NC[C@H]1O[C@H](C(=O)N[C@@H](Cc2ccccc2)c2nccs2)[C@@H](OC)[C@@H]1OC)OC)N(C)C(=O)[C@@H](NC(=O)[C@H](C(C)C)N(C)C)C(C)C`, the concentration for 50% growth inhibition (GI50) in data set [3] came to 0.01 nM.
In the case of `CC[C@H](C)[C@@H]([C@@H](CC(=O)N1CCC[C@H]1[C@H](OC)[C@@H](C)C(=O)O[C@H](CO)Cc1ccccc1)OC)N(C)C(=O)[C@@H](NC(=O)[C@H](C(C)C)N(C)C)[C@@H](C)CC`, in data set [4], the IC50 came to 2.1 nM.
In the case of `C#COCC(O)C(O)C(O)C(O)CN(C)[C@H](C(=O)N[C@H](C(=O)N(C)[C@@H]([C@@H](C)CC)[C@@H](CC(=O)N1CCC[C@H]1[C@H](OC)[C@@H](C)C(=O)N[C@@H](Cc1ccccc1)c1nccs1)OC)C(C)C)C(C)C` (some centres not stated), in data set [5], the half-maximal inhibitory concentration (IC50) came to 1 nM.
For the compound `CC[C@H](C)[C@@H]([C@@H](CC(=O)N1CCC[C@H]1[C@H](OC)[C@@H](C)C(=O)N[C@@H](Cc1ccccc1)c1nccs1)OC)N(C)C(=O)[C@@H](NC(=O)[C@H](C(C)C)N(C)CC(O)C(O)C(O)C(O)CN=[N+]=[N-])C(C)C` (some centres not stated), in data set [5], the IC50 was less than 1 nM.
Take `CCCCCCCCCCN(C)[C@H](C(=O)N[C@H](C(=O)N(C)[C@@H]([C@@H](C)CC)[C@@H](CC(=O)N1CCC[C@H]1[C@H](OC)[C@@H](C)C(=O)N[C@@H](Cc1ccccc1)C(=O)O)OC)C(C)C)C(C)C` (X5-V[Dil][Dolaproine]F-OH): in [6], the IC50 was found to be 1.8 nM.
Consider `CC[C@H](C)[C@@H]([C@@H](CC(=O)N1CCC[C@H]1[C@H](OC)[C@@H](C)C(=O)N[C@@H](Cc1ccccc1)C(=O)O)OC)N(C)C(=O)[C@@H](NC(=O)[C@H](C(C)C)N(C)C(=O)CO/N=C(\C)c1ccc(C[C@H](N)C(=O)O)cc1)[C@H](C)N=[N+]=[N-]` (X6-[NMeV][Abu(3S-N3)][Dil][Dolaproine]F-OH), for which the IC50 in [7] turned out to be 217 nM.
As to `CC[C@H](C)[C@@H]([C@@H](CC(=O)N1CCC[C@H]1[C@H](OC)[C@@H](C)C(=O)N[C@@H](Cc1ccccc1)c1nccs1)OC)N(C)C(=O)[C@@H](NC(=O)[C@H](C(C)C)N(C)C)C(C)C` [DOLASTATIN-10], the values for the MTD in data set [8] and in data set [24] were 0.036 mg/kg and 0.02 mg/kg, respectively. In data set [9], the Activity is reported as 5.2. In addition, the 50% growth inhibitory concentration (GI50) worked out at 0.004 nM in data set [10]; 0.01 nM in [11]; 0.01 nM in [1]; 0.033 nM in data set [19]; 0.001 nM in data set [21]; 0.009 nM in data set [22]. In addition, in data set [25], the GI50 worked out at 0.006 nM. The ED50 in [12] is on record as 4.6 10^-5 ug/ml. The 50% inhibitory concentration (IC50) in data set [13] came out at 0.032 nM; in data set [14], 1200 nM; in data set [15], 0.9 nM; in data set [17] it was 0.032 nM; in [18], 0.032 nM; in data set [20], 0.032 nM. In addition, in [23], the concentration for half-maximal inhibition (IC50) was determined as 3 nM. Besides, the MST in [16] was 91 days.
For `CC[C@H](C)[C@H]1[C@H](OC)CC(=O)N2CCC[C@H]2[C@H](OC)[C@@H](C)C(=O)N[C@@H](Cc2ccccc2)c2nc(cs2)C(=O)O[C@H](C)[C@H](N(C)C)C(=O)N[C@@H](C(C)C)C(=O)N1C`, the IC50 in data set [26] turned out to be 58.5 nM.
For the compound `CC[C@H](C)[C@@H]([C@@H](CC(=O)N1CCC[C@H]1[C@H](OC)[C@@H](C)C(=O)N[C@@H](Cc1ccccc1)C(=O)O)OC)N(C)C(=O)[C@@H](NC(=O)[C@@H](NC)C(C)C)C(C)C` (HELM PEPTIDE1{[meV].V.[CC[C@H](C)[C@@H]([C@@H](CC(=O)[*:2])OC)N(C)[*:1]].[CO[C@H]([C@@H](C)C(=O)[*:2])[C@@H]1CCCN1[*:1]].F}$$$$V2.0), the concentration for half-maximal inhibition (IC50) in [6] amounted to 137 nM; in data set [27], 105 nM; in [28] it was 2880 nM; in data set [29] it was 10 nM. Besides, the maximum tolerated dose (MTD) in [8] was found to be 1 mg/kg.
As for `CC[C@H](C)[C@@H]([C@@H](CC(=O)N1[C@H]2C[C@H]2C[C@H]1[C@H](OC)[C@@H](C)C(=O)N[C@@H](Cc1ccccc1F)C(=O)O)OC)N(C)C(=O)[C@@H](NC(=O)[C@@H](NC)C(C)C)C(C)C` (H-[NMeV]V[Dil][X2][Phe(2-F)]-OH), the concentration for 50% growth inhibition (GI50) in data set [30] is 1750 nM; in data set [31], 47.7 nM.
Consider `CC[C@H](C)[C@@H]([C@@H](CC(=O)N1CCC[C@H]1[C@H](OC)[C@@H](C)C(=O)OC[C@@H](O)Cc1ccccc1)OC)N(C)C(=O)[C@@H](NC(=O)[C@H](C(C)C)N(C)C)[C@@H](C)CC`, for which the IC50 in data set [4] amounted to 2.9 nM.
As for `CC[C@H](C)[C@@H]([C@@H](CC(=O)N1CCC[C@H]1[C@H](OC)[C@@H](C)C(=O)N[C@@H](Cc1ccccc1)C(N)=O)OC)N(C)C(=O)[C@@H](NC(=O)[C@@H](NC)C(C)C)[C@H](C)N=[N+]=[N-]` (H-[NMeV][Abu(3S-N3)][Dil][Dolaproine]F-NH2), the IC50 in [7] came to 0.6 nM.

The record behind these values is ChEMBL document CHEMBL5150014, “Discovery and Development of Dolastatin 10-Derived Antibody Drug Conjugate Anticancer Drugs” (J Nat Prod, 2022).
